Patent publication US4559362A, “Immunopotentiator” (Zaidan Hojin Biseibutsu Kagaku Kenkyu Kai, priority 1982, dated 1985)
Read-outs that look alike come from different tables or passages of the source.

Experiments:
[1] = test system: delayed-type hypersensitivity (DTH) to sheep erythrocytes; assay: Effect on delayed-type hypersensitivity (DTH) to sheep erythrocytes, sole swelling; type: in vivo, CDF1 mice
Method: (§1) The pharmacological effects of spermidine will be illustrated by reference to the following experimental examples, in which spermidine was administered as its phosphate dissolved in physiological saline.
In accordance with the method of Lagrange et al. (Lagrange, P. H., Mackaness, G. B., and Miller, T. E.: Influence of dose and route of antigen injection on the immunological induction of T cells. J. Exp. Med. 139, 528-542, 1974), the effect of spermidine on cellular immunity was investigated using as its index the degree of delayed-type hypersensitivity (DTH) to sheep erythrocytes as the antigen. CDF1 mice (8 weeks old, female) were intravenously injected with 10^5 or 10^8 sheep erythrocytes for immunization, and at the same time, were intraperitoneally injected with spermidine. Four days later, the soles of the mice were subcutaneously injected with 10^8 sheep erythrocytes to induce the DTH reaction. Twenty four hours later, swellings on the soles were measured with a caliper to evaluate the effect of spermidine.

[2] = test system: alternative pathway of the complement system; assay: Activation of the alternative pathway of the complement system (hemolysis of rabbit blood cells in normal human serum); type: biochemical; conditions: for % consumption of complement component C3: 37° C., 60 minutes
Method: The effect of spermidine on the activation of the alternative pathway of the complement system was investigated in accordance with the method of Platts-Mills and Ishizaka (Platt-Mills, T. A. E. and Ishizaka, K.: Activation of the alternative pathway of human complement by rabbit cells. J. Immune. 113, 348-358, 1974).
Spermidine was added to normal human serum in EGTA buffer solution, and the mixture was heated at 37° C. for 60 minutes. Rabbit blood cells were then added to the mixture. The degree of hemolysis was measured with a spectrophotometer at 412 nm to evaluate the effect of spermidine.

[3] = test system: interleukine-2 production (T blast cells); assay: Interleukine-2 production by spleen cells, activity of promoting the proliferation of T blast cells; type: cell-based, CDF1 mice; conditions: for activity at 0.001 µg/mL / activity at 0.01 µg/mL / activity at 0.1 µg/mL / activity at 1 µg/mL: Mus musculus, 24 h, control = 100, read-out: ^3 H-thymidine incorporation, T blast cells; for activity at 0.001 µg/mL: 0.001 μg/ml; for activity at 0.01 µg/mL: 0.01 μg/ml; for activity at 0.1 µg/mL: 0.1 μg/ml; for activity at 1 µg/mL: 1 μg/ml
Method: The effect of spermidine on the production of interleukine was investigated in accordance with the method of Larsson et al. (Larsson, E-L: Mechanism of T cell activation II. Antigen- and lectin-dependent acquisition of responsiveness to TCGF is a nonmitogenic, active response of resting T cells. J. Immunol. 126, 1323-1326, 1981).
Spermidine in a varying concentration was added to 1×10^7 spleen cells/ml of CDF1 mice. In the presence or absence of added concanavalin A (2 μg/ml), the stimulant of interleukine-2 production, the cells were then cultured in a cell incubator kept at 37° C. and at a carbon dioxide concentration of 5% for 24 hours. After completion of the incubation, α-methylmannoside was added to the supernatant to inactivate concanavalin A. The supernatant was collected to examine its interleukine-2 activity. The interleukine-2 activity was determined by the activity of promoting the proliferation of T blast cells and the activity of promoting the division of thymocytes. The latter two activities were determined by measuring ^3 H-thymidine incorporations to both types of cells.

IMC carcinoma = assay: Antitumor effect on IMC carcinoma transplanted subcutaneously into CDF1 mice; type: in vivo; conditions: for Weight of tumor ± S.D.: 10 times on alternative days, day 30, in mg (unit assumed)
Method: as §1
(§2) (a) The antitumor effect of spermidine was investigated on IMC carcinoma successively transplanted into CDF1 mice and on S180 sarcoma transplanted into ICR mice. 1×10^6 tumor cells of each of the above type were transplanted subcutaneously into such mice (Day 0). From Day 1 onwards, spermidine was intraperitoneally injected a total of 10 times (once daily on alternative days). Thirty days after transplantation of tumor cells, the tumor was removed and weighed to evaluate the effect of spermidine.

S-180 sarcoma = assay: Antitumor effect on S180 sarcoma transplanted subcutaneously into ICR mice; type: in vivo; conditions: for Weight of tumor ± S.D.: 10 times on alternative days, day 30, in mg (unit assumed)
Method: as §1, §2

mouse leukemia L-1210 = assay: Survival of CDF1 mice transplanted with mouse leukemia L-1210; type: in vivo; conditions: for Increase of life span: control = 100, mice surviving 60 days excluded
Method: as §1
(b) 1×10^2 mouse leukemia L-1210 cells were transplanted into CDF1 mice by subcutaneous injection (Day 0). From Day 1 onwards, 0.5 to 5 mg/kg of spermidine was administered in total of 10 times, once daily on alternative days, to investigate on the number of days the mice survived.

IMC ascites tumor = assay: Concomitant treatment with bleomycin and spermidine on IMC ascites tumor, survival; type: in vivo, CDF1 mice
Method: as §1
(c) 1×10^6 IMC cancer cells were transplanted into CDF1 mice by intraperitoneal injection (Day 0). Bleomycin (5 mg/kg) was administered once daily for 5 consecutive days, and spermidine (5 mg/kg) was administered a total of 10 times on alternative days. The effect of concomitant treatment with spermidine and the anticancer drug was evaluated by considering the number of days that the mice survived.

[4] = 5 mg/kg, 10 times on alternative days

NCCCCNCCCN [Spermidine, spermidine]
effect on normal cellular immunity ([1]; 5 to 0.005 mg/kg): enhances normal cellular immunity | Swelling on the sole ([1]; 10^5 sheep erythrocytes, 0.01 μg/mouse (0.0005) i.p.): 5.8 ± 0.4 × 0.1 mm | % increase (swelling on the sole) ([1]; 10^5 sheep erythrocytes, 0.01 μg/mouse (0.0005) i.p., untreated 10^5 group = 100): 91% | Swelling on the sole ([1]; 10^5 sheep erythrocytes, 0.1 μg/mouse (0.005) i.p.): 9.4 ± 0.7 × 0.1 mm | % increase (swelling on the sole) ([1]; 10^5 sheep erythrocytes, 0.1 μg/mouse (0.005) i.p., untreated 10^5 group = 100): 147% | Swelling on the sole ([1]; 10^5 sheep erythrocytes, 1 μg/mouse (0.05) i.p.): 8.5 ± 0.7 × 0.1 mm | % increase (swelling on the sole) ([1]; 10^5 sheep erythrocytes, 1 μg/mouse (0.05) i.p., untreated 10^5 group = 100): 133% | Swelling on the sole ([1]; 10^5 sheep erythrocytes, 10 μg/mouse (0.5) i.p.): 8.9 ± 0.7 × 0.1 mm | % increase (swelling on the sole) ([1]; 10^5 sheep erythrocytes, 10 μg/mouse (0.5) i.p., untreated 10^5 group = 100): 139% | Swelling on the sole ([1]; 10^5 sheep erythrocytes, 100 μg/mouse (5) i.p.): 8.1 ± 1.1 × 0.1 mm | % increase (swelling on the sole) ([1]; 10^5 sheep erythrocytes, 100 μg/mouse (5) i.p., untreated 10^5 group = 100): 126% | Swelling on the sole ([1]; 10^5 sheep erythrocytes, 1000 μg/mouse (50) i.p.): 7.1 ± 0.3 × 0.1 mm | % increase (swelling on the sole) ([1]; 10^5 sheep erythrocytes, 1000 μg/mouse (50) i.p., untreated 10^5 group = 100): 111% | effect of enhancing cellular immunity ([1]; 10^5 sheep erythrocytes, 0.01 or 1000 μg/mouse): no enhancing effect | effect of enhancing cellular immunity ([1]; 10^5 sheep erythrocytes, 0.1 to 100 μg/mouse): significant effect of enhancing cellular immunity | Swelling on the sole ([1]; 10^8 sheep erythrocytes, 0.01 μg/mouse (0.0005) i.p.): 4.5 ± 0.2 × 0.1 mm | % increase (swelling on the sole) ([1]; 10^8 sheep erythrocytes, 0.01 μg/mouse (0.0005) i.p., untreated 10^5 group = 100, untreated 10^8 group = 48): 70% | Swelling on the sole ([1]; 10^8 sheep erythrocytes, 0.1 μg/mouse (0.005) i.p.): 5.3 ± 0.3 × 0.1 mm | % increase (swelling on the sole) ([1]; 10^8 sheep erythrocytes, 0.1 μg/mouse (0.005) i.p., untreated 10^5 group = 100, untreated 10^8 group = 48): 83% | Swelling on the sole ([1]; 10^8 sheep erythrocytes, 1 μg/mouse (0.05) i.p.): 6.3 ± 0.3 × 0.1 mm | % increase (swelling on the sole) ([1]; 10^8 sheep erythrocytes, 1 μg/mouse (0.05) i.p., untreated 10^5 group = 100, untreated 10^8 group = 48): 98% | Swelling on the sole ([1]; 10^8 sheep erythrocytes, 10 μg/mouse (0.5) i.p.): 6.4 ± 0.06 × 0.1 mm | % increase (swelling on the sole) ([1]; 10^8 sheep erythrocytes, 10 μg/mouse (0.5) i.p., untreated 10^5 group = 100, untreated 10^8 group = 48): 100% | Swelling on the sole ([1]; 10^8 sheep erythrocytes, 100 μg/mouse (5.0) i.p.): 6.4 ± 0.4 × 0.1 mm | % increase (swelling on the sole) ([1]; 10^8 sheep erythrocytes, 100 μg/mouse (5.0) i.p., untreated 10^5 group = 100, untreated 10^8 group = 48): 100% | Swelling on the sole ([1]; 10^8 sheep erythrocytes, 1000 μg/mouse (50) i.p.): 7.4 ± 0.5 × 0.1 mm | % increase (swelling on the sole) ([1]; 10^8 sheep erythrocytes, 1000 μg/mouse (50) i.p., untreated 10^5 group = 100, untreated 10^8 group = 48): 116% | effect of strengthening cellular immunity ([1]; 10^8 sheep erythrocytes, 0.1 to 1000 μg/mouse, vs 10^8 control group): marked effect of strengthening cellular immunity | DTH reaction compared with group immunized with 10^5 erythrocytes ([1]; 10^8 sheep erythrocytes, 10 to 1000 μg/mouse): comparable | effect on suppression of cellular immunity by suppressor cells ([1]; 50 to 0.5 mg/kg): inhibit the suppression of cellular immunity by suppressor cells | % consumption of complement component C3 ([2]; 2 mg/ml): 0% | % consumption of complement component C3 ([2]; 4 mg/ml): 66.1% | % consumption of complement component C3 ([2]; 8 mg/ml): 83.6% | activation of the alternative pathway of complement ([2]; 4 to 8 mg/ml): clearly activates the alternative pathway of complement | optimal concentration (interleukin-2 production) [3]: 0.1 µg/mL | activity at 0.001 µg/mL ([3]; with Con A (2 μg/ml)): 94% | activity at 0.001 µg/mL ([3]; without Con A): 137% | activity at 0.01 µg/mL ([3]; with Con A (2 μg/ml)): 153% | activity at 0.01 µg/mL ([3]; without Con A): 152% | activity at 0.1 µg/mL ([3]; with Con A (2 μg/ml)): 157% | activity at 0.1 µg/mL ([3]; without Con A): 166% | activity at 1 µg/mL ([3]; with Con A (2 μg/ml)): 152% | activity at 1 µg/mL ([3]; without Con A): 136% | % inhibition (weight of tumor) (IMC carcinoma; 0.05 mg/kg/day i.p.): 26% | Weight of tumor ± S.D. (IMC carcinoma; 0.05 mg/kg/day i.p.): 5112 ± 2263 | % inhibition (weight of tumor) (IMC carcinoma; 0.5 mg/kg/day i.p.): 58% | Weight of tumor ± S.D. (IMC carcinoma; 0.5 mg/kg/day i.p.): 2893 ± 964 | % inhibition (weight of tumor) (IMC carcinoma; 5 mg/kg/day i.p.): 40% | Weight of tumor ± S.D. (IMC carcinoma; 5 mg/kg/day i.p.): 4125 ± 1852 | % inhibition (weight of tumor) (IMC carcinoma; 50 mg/kg/day i.p.): 44% | Weight of tumor ± S.D. (IMC carcinoma; 50 mg/kg/day i.p.): 3886 ± 1351 | % inhibition (weight of tumor) (S-180 sarcoma; 0.05 mg/kg/day i.p.): 9% | Weight of tumor ± S.D. (S-180 sarcoma; 0.05 mg/kg/day i.p.): 5193 ± 1522 | % inhibition (weight of tumor) (S-180 sarcoma; 0.5 mg/kg/day i.p.): 35% | Weight of tumor ± S.D. (S-180 sarcoma; 0.5 mg/kg/day i.p.): 3689 ± 1331 | % inhibition (weight of tumor) (S-180 sarcoma; 5 mg/kg/day i.p.): 63% | Weight of tumor ± S.D. (S-180 sarcoma; 5 mg/kg/day i.p.): 2087 ± 1040 | % inhibition (weight of tumor) (S-180 sarcoma; 50 mg/kg/day i.p.): 43% | Weight of tumor ± S.D. (S-180 sarcoma; 50 mg/kg/day i.p.): 3245 ± 1106 | Survival rate on Day 60 (mouse leukemia L-1210; 0.5 mg/kg): 1/10 | Survival period (mouse leukemia L-1210; 0.5 mg/kg, 10 times on alternative days): 16.0 ± 3.1 days | Increase of life span (mouse leukemia L-1210; 0.5 mg/kg): 109% | Survival rate on Day 60 (mouse leukemia L-1210; 5 mg/kg): 3/10 | Survival period (mouse leukemia L-1210; [4]): 15.2 ± 2.2 days | complete remission (mouse leukemia L-1210; [4]): 3 out of 10 | Increase of life span (mouse leukemia L-1210; 5 mg/kg): 104% | Survival rate on Day 60 (IMC ascites tumor; spermidine (5 mg/kg) alone): 0/10 | Survival period (IMC ascites tumor; spermidine (5 mg/kg) alone, 10 times on alternative days): 20.1 ± 2.3 days | Increase of life span (IMC ascites tumor; spermidine (5 mg/kg) alone, control = 100): 114% | life span increase against the control group (IMC ascites tumor; spermidine alone): 14%
